Consider one compound from US20210353631A1, “1,4-Benzoxazines for the Treatment of Cancers and Other Neurodegenerative Diseases” (Neugeneron LLC, priority 2020, published 2021).

Experiment [1] deals with T1, CSNK1A1 (Homo sapiens, UniProt P48729).
T1 construct: purchased DiscoveRx/Eurofin
As to the kind of experiment: KINOMEscan kinome profiling (DiscoveRx/Eurofin platform). As to conditions: read-out: % control. It counts as binding.

For experiment [2], the target named is T2, EGFR(G719C) (Homo sapiens, UniProt P00533, G719C).
T2 construct: purchased DiscoveRx/Eurofin
The experiment is described as above. It counts as binding. The following applies: read-out: % control.

Experiment [3] concerns 451 kinases. The experiment in a line: Kinome profiling, count of kinases inhibited in the whole panel. Format: binding. The following applies: substantially defined as over 36% inhibition at 1 uM.
The target of experiment [4] is T3, DMPK (Homo sapiens, UniProt Q09013).
T3 construct: purchased DiscoveRx/Eurofin
The experiment in a line: KINOMEscan kinome profiling (DiscoveRx/Eurofin platform). It counts as binding. The following applies: read-out: % control.

Experiment [5] concerns cerebellar granule neurons (CGNs). As to the kind of experiment: Neuroprotection in cerebellar granule neurons switched from HK to LK medium. It counts as cell-based. As to conditions: 1, 5 and 25 uM, viability 24 h later, single experiment in duplicate. How it is done:
(§1) FIGS. 1A to 1C, show: (FIG. 1A) Chemical structure of NGN-006. (FIG. 1B) Neuroprotection in cerebellar granule neurons (CGNs) induced to die by switching from high potassium (HK) to low potassium (LK) medium. HSB-13 and NGN-006 were added to LK-treated CGNs at 1, 5 and 25 uM concentrations. Viability was measured 24 h later and compared with control survival in HK). Results are means values from a single experiment performed in duplicate. […] (FIG. 1C) Neuroprotection in cortical neurons (CGNs) induced to die by treatment with homocysteic acid (HCA) which induces oxidative stress. Neurons were treated either with HCA alone or HCA with 25 uM HSB-13 or 5 uM and 25 uM NGN-006 for 18 h. Viability was measured 24 h later and compared with survival of control (untreated cells, Unt). Results are mean values from a single experiment performed in duplicate.
(§2) Based on the structure of HSB-13 addition compounds have been synthesized. Among these derivatives was NGN-006 (FIG. 1A). […] Viability was measured 24 h later and compared with control survival in HK). […] Viability was measured 24 h later and compared with survival of control (untreated cells, Unt). […]

In experiment [6] the target is T4, DYRK2 (Homo sapiens, UniProt Q92630).
T4 construct: purchased DiscoveRx/Eurofin
As to the kind of experiment: KINOMEscan kinome profiling (DiscoveRx/Eurofin platform). Format: binding. As to conditions: read-out: % control.

Experiment [7] concerns the target T5, DMPK2 (CDC42BPG) (Homo sapiens, UniProt Q6DT37).
T5 construct: purchased DiscoveRx/Eurofin
The experiment is described as above. It counts as binding. The following applies: KINOMEscan DMPK2 (Entrez CDC42BPG), read-out: % control.

The target of experiment [8] is T6, CLK1 (Homo sapiens, UniProt P49759).
T6 construct: purchased DiscoveRx/Eurofin
Described as above. It counts as binding. The following applies: read-out: % control.

Experiment [9] concerns the target T7, CSNK2A2 (Homo sapiens, UniProt P19784).
T7 construct: purchased DiscoveRx/Eurofin
The description is as above. Format: binding. The following applies: read-out: % control.

Experiment [10] has as its target T8, CSNK1G2 (Homo sapiens, UniProt P78368).
T8 construct: purchased DiscoveRx/Eurofin
The description is as above. It counts as binding. The following applies: read-out: % control.

Experiment [11] deals with T9, CLK4 (Homo sapiens, UniProt Q9HAZ1).
T9 construct: purchased DiscoveRx/Eurofin
Described as above. It counts as binding. The following applies: read-out: % control.

Experiment [12] addresses T10, DCAMKL1 (DCLK1) (Homo sapiens, UniProt O15075).
T10 construct: purchased DiscoveRx/Eurofin
Described as above. As to conditions: KINOMEscan DCAMKL1 (Entrez DCLK1), read-out: % control. It counts as binding.

Experiment [13] deals with T11, DYRK1B (Homo sapiens, UniProt Q9Y463).
T11 construct: purchased DiscoveRx/Eurofin
Described as above. The following applies: read-out: % control. It counts as binding.

For experiment [14], the target named is T12, DAPK3 (Homo sapiens, UniProt O43293).
T12 construct: purchased DiscoveRx/Eurofin
The experiment is described as above. Format: binding. As to conditions: read-out: % control.

In experiment [15] the target is T13, CLK2 (Homo sapiens, UniProt P49760).
T13 construct: purchased DiscoveRx/Eurofin
The description is as above. It counts as binding. As to conditions: read-out: % control.

Experiment [16] deals with T14, EGFR(L747-E749del, A750P) (Homo sapiens, UniProt P00533, A750P/DEL747-749).
T14 construct: purchased DiscoveRx/Eurofin
The description is as above. The following applies: read-out: % control. It counts as binding.

The target in experiment [17] is p38 MAPK. The experiment in a line: Kinome profiling of NGN-006. The following applies: kinase that HSB-13 inhibits. Format: binding.
Experiment [18] deals with T15, DAPK1 (Homo sapiens, UniProt P53355).
T15 construct: purchased DiscoveRx/Eurofin
As to the kind of experiment: KINOMEscan kinome profiling (DiscoveRx/Eurofin platform). It counts as binding. As to conditions: read-out: % control.

Experiment [19] has as its target T16, DCAMKL3 (DCLK3) (Homo sapiens, UniProt Q9C098).
T16 construct: purchased DiscoveRx/Eurofin
Described as above. It counts as binding. The following applies: KINOMEscan DCAMKL3 (Entrez DCLK3), read-out: % control.

Experiment [20] deals with cortical neurons. As to the kind of experiment: Neuroprotection in cortical neurons treated with homocysteic acid (HCA). Format: cell-based. As to conditions: cortical neurons treated with HCA (oxidative stress); 5 uM and 25 uM for 18 h; single experiment in duplicate. How it is done:
as §1, §2

T11 sequence (Q9Y463 whole entry): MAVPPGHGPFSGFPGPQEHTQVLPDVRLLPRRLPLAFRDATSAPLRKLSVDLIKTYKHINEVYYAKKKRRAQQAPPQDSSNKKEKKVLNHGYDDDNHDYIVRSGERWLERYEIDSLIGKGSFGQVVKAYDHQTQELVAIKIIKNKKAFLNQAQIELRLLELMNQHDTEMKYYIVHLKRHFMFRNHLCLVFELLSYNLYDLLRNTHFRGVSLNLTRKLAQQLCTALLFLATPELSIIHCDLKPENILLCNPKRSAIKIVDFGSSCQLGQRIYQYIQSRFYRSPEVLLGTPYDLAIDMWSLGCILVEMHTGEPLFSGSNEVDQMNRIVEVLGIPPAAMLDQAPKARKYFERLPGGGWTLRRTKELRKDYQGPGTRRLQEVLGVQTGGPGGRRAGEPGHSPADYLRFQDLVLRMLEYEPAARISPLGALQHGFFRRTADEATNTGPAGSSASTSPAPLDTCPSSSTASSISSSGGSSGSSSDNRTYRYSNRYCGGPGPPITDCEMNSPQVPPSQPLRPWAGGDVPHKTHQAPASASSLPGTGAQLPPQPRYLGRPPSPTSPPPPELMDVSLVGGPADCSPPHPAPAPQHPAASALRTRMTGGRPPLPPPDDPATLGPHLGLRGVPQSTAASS
T2 sequence (P00533 25-1210 G719C): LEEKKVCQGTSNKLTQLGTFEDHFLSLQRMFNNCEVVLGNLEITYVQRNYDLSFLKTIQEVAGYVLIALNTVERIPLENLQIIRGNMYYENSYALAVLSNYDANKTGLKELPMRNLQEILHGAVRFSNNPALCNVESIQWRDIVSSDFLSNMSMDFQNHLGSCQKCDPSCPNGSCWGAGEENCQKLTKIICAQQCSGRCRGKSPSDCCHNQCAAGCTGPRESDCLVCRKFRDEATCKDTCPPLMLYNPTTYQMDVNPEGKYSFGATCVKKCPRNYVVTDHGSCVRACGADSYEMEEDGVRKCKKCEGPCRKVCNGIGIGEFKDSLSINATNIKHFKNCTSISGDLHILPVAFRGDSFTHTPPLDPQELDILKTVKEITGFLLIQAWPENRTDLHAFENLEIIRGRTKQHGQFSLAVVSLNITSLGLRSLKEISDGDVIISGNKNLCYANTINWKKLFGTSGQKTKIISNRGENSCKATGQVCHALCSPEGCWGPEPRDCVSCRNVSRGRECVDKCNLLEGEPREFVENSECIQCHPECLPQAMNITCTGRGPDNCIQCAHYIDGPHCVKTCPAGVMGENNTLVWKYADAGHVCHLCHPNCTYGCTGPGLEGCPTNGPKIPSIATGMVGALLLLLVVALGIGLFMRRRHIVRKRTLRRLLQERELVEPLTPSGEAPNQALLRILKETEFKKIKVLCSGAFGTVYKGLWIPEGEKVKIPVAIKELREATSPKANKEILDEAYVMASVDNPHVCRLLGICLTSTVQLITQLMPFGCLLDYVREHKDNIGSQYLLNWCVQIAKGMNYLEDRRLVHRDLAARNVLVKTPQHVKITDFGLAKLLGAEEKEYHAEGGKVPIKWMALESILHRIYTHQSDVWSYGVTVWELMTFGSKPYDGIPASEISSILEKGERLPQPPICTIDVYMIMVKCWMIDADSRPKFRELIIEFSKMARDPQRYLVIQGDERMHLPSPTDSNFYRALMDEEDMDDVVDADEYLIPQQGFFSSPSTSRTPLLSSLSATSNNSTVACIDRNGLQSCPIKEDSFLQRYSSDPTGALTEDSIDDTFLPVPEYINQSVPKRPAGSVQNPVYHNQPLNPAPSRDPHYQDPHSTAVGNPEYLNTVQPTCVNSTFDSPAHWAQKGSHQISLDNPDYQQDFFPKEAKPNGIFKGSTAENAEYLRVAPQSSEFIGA
T4 sequence (Q92630 whole entry): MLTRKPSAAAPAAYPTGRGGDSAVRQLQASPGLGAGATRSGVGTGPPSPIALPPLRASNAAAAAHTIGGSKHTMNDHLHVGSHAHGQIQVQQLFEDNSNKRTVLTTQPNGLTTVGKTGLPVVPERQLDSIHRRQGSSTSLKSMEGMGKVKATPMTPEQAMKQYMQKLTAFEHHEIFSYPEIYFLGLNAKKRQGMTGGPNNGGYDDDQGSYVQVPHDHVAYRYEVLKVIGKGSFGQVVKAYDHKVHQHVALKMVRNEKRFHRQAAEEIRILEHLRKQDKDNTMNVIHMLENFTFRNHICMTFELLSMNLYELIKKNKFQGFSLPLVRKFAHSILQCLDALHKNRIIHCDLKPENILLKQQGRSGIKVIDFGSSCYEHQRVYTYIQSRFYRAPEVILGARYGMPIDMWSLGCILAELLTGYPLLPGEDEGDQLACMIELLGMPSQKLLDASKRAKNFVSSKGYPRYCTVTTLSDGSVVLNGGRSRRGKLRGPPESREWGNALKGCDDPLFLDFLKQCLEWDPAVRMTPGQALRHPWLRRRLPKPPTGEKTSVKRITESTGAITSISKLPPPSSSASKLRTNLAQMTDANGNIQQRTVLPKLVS
T5 sequence (Q6DT37 whole entry): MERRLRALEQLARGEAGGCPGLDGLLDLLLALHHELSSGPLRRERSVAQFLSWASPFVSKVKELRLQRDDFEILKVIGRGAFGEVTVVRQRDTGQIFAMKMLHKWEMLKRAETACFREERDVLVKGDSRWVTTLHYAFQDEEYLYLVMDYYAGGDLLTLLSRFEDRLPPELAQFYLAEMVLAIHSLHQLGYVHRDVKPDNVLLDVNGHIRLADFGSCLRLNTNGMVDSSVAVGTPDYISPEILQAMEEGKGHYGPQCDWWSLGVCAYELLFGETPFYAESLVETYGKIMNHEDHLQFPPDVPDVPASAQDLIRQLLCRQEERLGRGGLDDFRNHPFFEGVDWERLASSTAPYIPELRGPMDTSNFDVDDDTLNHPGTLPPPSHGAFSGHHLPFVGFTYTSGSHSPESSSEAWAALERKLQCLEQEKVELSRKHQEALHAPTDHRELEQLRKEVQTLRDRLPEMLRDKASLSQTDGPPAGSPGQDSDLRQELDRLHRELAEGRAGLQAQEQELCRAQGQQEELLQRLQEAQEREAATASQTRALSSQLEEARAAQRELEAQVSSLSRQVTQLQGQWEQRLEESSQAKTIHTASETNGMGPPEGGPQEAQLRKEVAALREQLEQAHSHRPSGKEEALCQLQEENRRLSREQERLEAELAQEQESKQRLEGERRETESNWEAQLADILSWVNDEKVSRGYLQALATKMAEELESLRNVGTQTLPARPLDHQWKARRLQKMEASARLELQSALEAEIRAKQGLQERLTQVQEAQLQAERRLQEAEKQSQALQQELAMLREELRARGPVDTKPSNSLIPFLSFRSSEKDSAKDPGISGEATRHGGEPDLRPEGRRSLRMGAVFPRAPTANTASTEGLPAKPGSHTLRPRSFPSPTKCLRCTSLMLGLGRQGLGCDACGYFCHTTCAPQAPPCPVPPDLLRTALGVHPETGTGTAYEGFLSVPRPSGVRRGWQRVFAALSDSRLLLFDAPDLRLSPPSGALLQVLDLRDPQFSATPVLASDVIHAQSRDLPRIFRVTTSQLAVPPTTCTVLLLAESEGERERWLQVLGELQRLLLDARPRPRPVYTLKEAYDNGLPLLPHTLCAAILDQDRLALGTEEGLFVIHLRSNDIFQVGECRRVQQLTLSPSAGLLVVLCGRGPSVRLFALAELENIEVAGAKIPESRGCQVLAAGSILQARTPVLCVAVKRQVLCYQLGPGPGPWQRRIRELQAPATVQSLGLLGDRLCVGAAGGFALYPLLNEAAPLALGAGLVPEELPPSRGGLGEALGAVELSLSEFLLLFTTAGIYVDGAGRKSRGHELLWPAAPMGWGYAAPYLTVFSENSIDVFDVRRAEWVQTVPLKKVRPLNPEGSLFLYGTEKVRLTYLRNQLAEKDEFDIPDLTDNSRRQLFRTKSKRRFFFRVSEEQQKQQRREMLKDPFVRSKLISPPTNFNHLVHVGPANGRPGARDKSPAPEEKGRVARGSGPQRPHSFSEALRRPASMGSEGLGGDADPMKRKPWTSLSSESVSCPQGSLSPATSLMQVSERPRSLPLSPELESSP
T8 sequence (P78368 whole entry): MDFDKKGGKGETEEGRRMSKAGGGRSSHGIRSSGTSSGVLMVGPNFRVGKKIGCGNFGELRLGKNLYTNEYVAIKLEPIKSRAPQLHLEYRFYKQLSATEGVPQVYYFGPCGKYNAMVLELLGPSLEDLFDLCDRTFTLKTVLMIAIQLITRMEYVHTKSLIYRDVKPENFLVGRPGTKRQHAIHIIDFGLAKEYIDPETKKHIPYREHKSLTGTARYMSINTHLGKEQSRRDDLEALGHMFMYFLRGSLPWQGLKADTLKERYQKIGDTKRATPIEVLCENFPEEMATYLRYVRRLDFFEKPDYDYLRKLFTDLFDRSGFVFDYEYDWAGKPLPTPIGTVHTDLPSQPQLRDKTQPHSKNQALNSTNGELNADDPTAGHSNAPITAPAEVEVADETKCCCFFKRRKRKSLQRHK
T9 sequence (Q9HAZ1 whole entry): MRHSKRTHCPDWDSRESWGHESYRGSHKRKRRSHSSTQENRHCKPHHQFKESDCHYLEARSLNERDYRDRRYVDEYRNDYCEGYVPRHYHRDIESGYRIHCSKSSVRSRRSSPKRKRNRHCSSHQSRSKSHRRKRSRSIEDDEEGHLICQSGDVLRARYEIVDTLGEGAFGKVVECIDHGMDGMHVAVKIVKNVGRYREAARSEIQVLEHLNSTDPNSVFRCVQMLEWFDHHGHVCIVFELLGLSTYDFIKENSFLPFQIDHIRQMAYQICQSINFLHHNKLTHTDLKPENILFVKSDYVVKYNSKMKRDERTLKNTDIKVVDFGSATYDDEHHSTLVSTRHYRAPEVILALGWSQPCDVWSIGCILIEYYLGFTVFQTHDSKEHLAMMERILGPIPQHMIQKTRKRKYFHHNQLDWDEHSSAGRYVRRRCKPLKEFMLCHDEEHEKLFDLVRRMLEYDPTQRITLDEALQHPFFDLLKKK

Take `Nc1ccc2c(c1)NC(=O)/C(=C/c1ccc(Cl)cc1)O2` [NGN-006, (2Z)-6-amino-2-[(4-chlorophenyl)methylidene]-3,4-dihydro-2H-1,4-benzoxazin-3-one]: the remaining binding at 1 µM in [1] is 100%; in experiment [2], 100%; in [4], 100%; in experiment [6], 100%; in experiment [7] it was 96%; in experiment [8], 79%. For the same compound, the remaining binding at 1 µM in experiment [9] turned out to be 100%; in [10], 100%; in experiment [11], 100%; in [12], 100%; in experiment [13], 100%; in [14] it was 88%. Besides, the remaining binding at 1 µM turned out to be 100% in experiment [15], 92% in [16], 100% in [18] and 100% in experiment [19]. Besides, the “kinases inhibited substantially of the 451 kinases tested” value in [3] is “only DRAK1/STK17a”. In addition, the “neuroprotection (viability)” value in experiment [5] and in experiment [20] was “protective” throughout. Further, the “kinase inhibition (in words)” value in experiment [17] is listed as “does not inhibit”.
